# Results: PubChem BioAssay (NCI)
# “And” between values parts separate entries of the source, which are not always exact repeats. Equal values may be shown once.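 Where inhibition never reached the appropriate level, the endpoint shown equals the highest concentration tested. Otherwise, values were interpolated linearly from a five-concentration, 48-hour dose response in 96-well plates. Abbreviation: GI50, concentration required for 50% inhibition of growth. TGI is the concentration that stops growth completely.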
# How the values were obtained:
# Assay in all cases: NCI anticancer screen, dose series, 48 h
# [1] = system: DU-145 prostate
# [2] = system: M14 melanoma
# [3] = system: MCF7 breast
# [4] = system: MDA-MB-231 breast
# [5] = system: MDA-MB-435
# [6] = system: NCI-H460 lung
# [7] = system: NCI/ADR-RES ovarian
# [8] = system: OVCAR-4 ovarian
# [9] = system: RXF 393 renal
# [10] = system: T-47D breast
Compound,GI50 [1],TGI [1],GI50 [2],TGI [2],GI50 [3],TGI [3],GI50 [4],TGI [4],GI50 [5],TGI [5],GI50 [6],TGI [6],GI50 [7],TGI [7],GI50 [8],TGI [8],GI50 [9],TGI [9],GI50 [10],TGI [10]
CC(=O)C1=C(O)C=C2Oc3c(C(=O)/C=C/c4cc(Cl)cc(Cl)c4)c(O)c(C)c(O)c3[C@]2(C)C1=O,0.622 µM,5.58 µM,0.567 µM,2.28 µM,0.458 µM,1.72 µM,0.541 µM,1.85 µM,0.493 µM,1.87 µM,0.528 µM,1.77 µM,0.537 µM,1.96 µM,0.565 µM,7.17 µM,0.541 µM,1.62 µM,0.435 µM,1.36 µM
CC(=O)[C@H]1CCC2[C@@H]3CC=C4C[C@@H]([O-])CC[C@]4(C)C3CC[C@@]21C.CC(=O)[C@H]1CCC2[C@@H]3CC=C4C[C@@H]([O-])CC[C@]4(C)C3CC[C@@]21C.CC(=O)[CH-]C(=O)c1ccccc1.CC(=O)[CH-]C(=O)c1ccccc1.Cl.[Ti+4] (some centres not stated),,,18.8 µM,46.1 µM,,,,,,,13.9 µM,52.6 µM,,,62 µM,> 100 µM,27.1 µM,> 100 µM,,
Clc1cccc(C2N3CCCCC3[C@@H]3c4[nH]c5ccccc5c4CCN23)c1 (some centres not stated),,,,78.5 µM,,,,,,,,46.1 µM,,,,> 100 µM,,47.5 µM,,
CC(=O)[CH-]C(=O)c1ccccc1.CC(=O)[CH-]C(=O)c1ccccc1.O=S(=O)([O-])c1cc([O-])c2c([O-])cc(S(=O)(=O)[O-])cc2c1.[Na+].[Zr+4],,,52.2 µM,> 100 µM,,,,,,,94.1 µM,> 100 µM,,,> 100 µM,> 100 µM,,,,
O=c1c(Cl)c(Cl)cnn1CCCl,,34 µM,,11.3 µM,,,,,,10.6 µM,,23.1 µM,,,,3.14 µM,,4.74 µM,,14.6 µM
CCCCCCCCCC[C@H](O)[C@H](O)CC[C@@H](O)[C@H]1CC[C@@H]([C@H]2CC[C@H](CCCCCCC[C@@H](O)CC3=C[C@H](C)OC3=O)O2)O1,,,23.1 µM,58.4 µM,19.2 µM,77.6 µM,19.4 µM,7.79 µM and 69.2 µM,28.7 µM,,0.39 µM,29.6 µM,18.2 µM,> 100 µM,,78 µM,42.5 µM,83 µM,4.22 µM,42.8 µM
COc1ccc(S(=O)(=O)N(CC(=O)O)c2ccccc2)cc1,,,,> 100 µM,,,,,,,,> 100 µM,,,,> 100 µM,,> 100 µM,,
Nc1c(Cl)ncnc1NCCCCCCCCCCCCNc1ncnc(Cl)c1N,,,,57.3 µM,,,,,,,,10.1 µM,,,,> 100 µM,,8.01 µM,,
Cc1cccc(C)c1N1C(=O)C(=O)C(c2nc3ccccc3s2)/C(=N\N)C1=O (configuration not stated),,,,> 100 µM,,,,,,,,> 100 µM,,,,> 100 µM,,,,
O=C(/C=C/c1cccc([N+](=O)[O-])c1)c1ccc([N+](=O)[O-])cc1,,,,> 100 µM,,,,,,,,> 100 µM,,,,> 100 µM,,> 100 µM,,
O=C(Nc1ccc(Cl)c(Cl)c1)C(=O)C(C(=O)c1ccccc1-c1ccccc1)C1OC(=O)c2ccccc21 (configuration not stated),,,,30.1 µM,,,,,,,,62.6 µM,,,,,,21.5 µM,,
O=C(O)C1[O][Sb][O]C(C(=O)O)C1O (configuration not stated),> 100 µM,> 100 µM,> 100 µM,> 100 µM,,,> 100 µM,> 100 µM,> 100 µM,> 100 µM,> 100 µM,> 100 µM,> 100 µM,> 100 µM,> 100 µM,> 100 µM,> 100 µM,> 100 µM,> 100 µM,> 100 µM
CC(C)CCCCCCCCCCCCC(=O)NCC(=O)NC1C(O)C(O)C(Nc2ncnc3nc[nH]c23)OC1C(O)CO (configuration not stated),< 1e-05 µM,,< 1e-05 µM,,0.00287 µM and 0.0113 µM,0.394 µM and 0.352 µM,< 1e-05 µM,0.38 µM,< 1e-05 µM,,,,,0.124 µM and 0.0422 µM,< 1e-05 µM,,< 1e-05 µM,,,0.917 µM
COC(=O)[C@@H]1Cc2c([nH]c3ccccc23)[C@H](c2ccccc2)N1,,,,79.6 µM,,,,,,,,> 100 µM,,,,> 100 µM,,,,
CC1NC(=O)C2=C1C(=O)NC(=O)C2 (configuration not stated),> 100 µM,> 100 µM,> 100 µM,> 100 µM,> 100 µM,> 100 µM,> 100 µM,> 100 µM,> 100 µM,> 100 µM,> 100 µM,> 100 µM,> 100 µM,> 100 µM,,,> 100 µM,> 100 µM,,
COC1OC2COC(C)(C)OC2C(OC(C)=O)C1NC(=O)N(CCCl)N=O (configuration not stated),,,,> 100 µM,,,,,,,,> 100 µM,,,,> 100 µM,,> 100 µM,,
CCCCCCCCCCCCOC1C(CNC(=O)C2OC3OC(C)(C)OC3C2NC(=O)CN2CCN(c3ccc(OC)cc3)CC2)OC2OC(C)(C)OC21 (configuration not stated),4.56 µM,15.6 µM,4.73 µM,18.9 µM,2.81 µM,8.29 µM,5.65 µM,17.8 µM,5.12 µM,17.7 µM,,,4.03 µM,16.1 µM,3.83 µM,15.8 µM,2.1 µM,4.44 µM,4.33 µM,23.4 µM
O=C(Nc1ccc(Cl)cc1Cl)OC(Cn1cncn1)c1ccc(Cl)cc1Cl (configuration not stated),,,,32.1 µM,,,,,,,,,,,,28 µM,,30.9 µM,,
O=C(c1ccc(Cl)cc1)C(O)c1ccc(Cl)cc1 (configuration not stated),,> 100 µM,,> 100 µM,,> 100 µM,,> 100 µM,,> 100 µM,,> 100 µM,,> 100 µM,,> 100 µM,,> 100 µM,,
CCNC(=O)OCc1c(COC(=O)NCC)c(-c2ccc(Cl)c(Cl)c2)n2c1CCC2,,,,24.3 µM,,,,,,,,25.7 µM,,,,36.1 µM,,,,
CN(/N=C\c1ccnc2ccccc12)c1ccc([N+](=O)[O-])cc1,,,,> 100 µM,,,,,,,,,,,,,,,,
COc1c(-c2ccccc2)nc2ccc(Oc3ccccc3)nn12,,,,> 100 µM,,,,,,,,> 100 µM,,,,> 71.3 µM,,> 73.6 µM,,
Cc1nc2c(o1)C(=Nc1ccccc1)c1nc(C)oc1C2=Nc1ccccc1,,,,> 100 µM,,,,,,,,> 100 µM,,,,,,37.5 µM,,
